What was measured:
SMYD3 = target: T1, SMYD3 (Homo sapiens, UniProt Q9H7B4); assay: SMYD3 Scintillation Proximity Assay (SPA), methylation of MAP3K2 Peptide; assay type: biochemical; settings: SMYD3 full length enzyme 10 nM, 3H-SAM 125 nM, MAP3K2 Peptide 1 μM, 120 min at 22° C.
T1 construct: The SMYD3 full length enzyme was produced in-house by expression (with an N-terminal 6×His tag) in E. coli; 6xHis (N); made in house; host or cells: E. coli
T1 sequence (Q9H7B4 1-428): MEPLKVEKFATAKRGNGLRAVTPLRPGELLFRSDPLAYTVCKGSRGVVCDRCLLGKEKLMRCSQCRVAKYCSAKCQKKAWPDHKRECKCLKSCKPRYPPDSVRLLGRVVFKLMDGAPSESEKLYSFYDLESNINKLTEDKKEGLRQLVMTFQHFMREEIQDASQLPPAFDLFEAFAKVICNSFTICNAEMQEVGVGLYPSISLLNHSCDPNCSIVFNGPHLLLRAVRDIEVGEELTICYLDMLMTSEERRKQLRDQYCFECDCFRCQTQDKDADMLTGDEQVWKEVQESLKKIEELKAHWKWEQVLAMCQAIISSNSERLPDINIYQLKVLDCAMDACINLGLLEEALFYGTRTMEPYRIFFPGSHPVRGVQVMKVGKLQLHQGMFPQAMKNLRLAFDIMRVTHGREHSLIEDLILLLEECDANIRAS
Description: SMYD3 Scintillation Proximity Assay (SPA)
The SMYD3 full length enzyme was produced in-house by expression (with an N-terminal 6×His tag) in E. coli and purification by affinity chromatography on a Ni-NTA Sepharose column followed by a size exclusion chromatography step on a Superdex 200 16/60 column (GE Healthcare).
To this end, 100-fold concentrated compound solutions (in DMSO) were previously prepared by serial dilution (1:3.4) of 2 mM stocks in a clear low volume 384-well source microtiter plate (Greiner Bio-One), from which 100 nl of compounds were transferred into a white low volume test microtiter plate from the same supplier. […] The resulting mixture (5 μl final volume) was shortly centrifuged (2 min., 1500 rpm) and incubated at 22° C. during 120 min. […] Plates containing the stopped reaction were sealed with transparent adhesive foil (Perkin Elmer), centrifuged (2 min., 1500 rpm), and further incubated overnight at 4° C. in order to allow the SPA signals to develop. Subsequently, the amount of product was evaluated by measuring the energy transfer from the […] emitted by the 3H-labeled substrate to the scintillator co-polymerized in the bead's matrix, using a TopCount NXT scintillation counter (Packard) with the standard instrument settings for this purpose. The resulting scintillation counts were taken as indicator for the amount of methylated peptide per well. […] IC50 values were calculated by fitting the normalized inhibition data to a 4-parameter logistic equation using the XLFit analysis software (IDBS).

[1] = target: T2, untagged full length SMYD3 (Homo sapiens, UniProt Q9H7B4); assay: Thermal Shift Assay; assay type: binding; settings: protein 1.5-2.0 μM, 5× SYPRO Orange, scans 25° C. to 80° C.; control 4% DMSO
T2 construct: As protein untagged full length SMYD3 was used
T2 sequence (Q9H7B4 1-428): T1 sequence (Q9H7B4 1-428)
Description: Thermal Shift Assay Thermal melting experiments were performed with a ViiA™ Real-Time PCR machine (Thermo Fisher Scientific) in 384-well microliter plate with a final volume of 5 μL. Melting curves were obtained at a protein concentration of 1.5-2.0 μM and 5× SYPRO Orange (Invitrogen) using buffer containing 20 mM Tris pH7.0; 150 mM NaCl; 1.0 mM DTT. As protein untagged full length SMYD3 was used. […] As control 4% DMSO was used. Scans were measured from 25° C. to 80° C. at a scanning rate of 0.1° C./sec. All TSA data were analyzed by using Genedata Assay Analyzer.

With `C[C@H]1CC(=O)Nc2cc(C(=O)NCCC3CC3)ccc2N1C(=O)NC1CCNCC1` [Example 43, (2S)—N^7-(2-cyclopropylethyl)-2-methyl-4-oxo-N^1-(piperidin-4-yl)-2,3,4,5-tetrahydro-1H-1,5-benzodiazepine-1,7-dicarboxamide] the IC50 (SMYD3) was 481 nM and the “Thermal shift assay (° C.)” value [1] was 7.49 °C.

For `C[C@H]1CC(=O)Nc2cc(C(=O)NCCC3CC3)ccc2N1C(=O)N(C)C1CCNCC1` [Example 45, (2S)—N^7-(2-cyclopropylethyl)-N^1,2-dimethyl-4-oxo-N^1-(piperidin-4-yl)-2,3,4,5-tetrahydro-1H-1,5-benzodiazepine-1,7-dicarboxamide], the IC50 (SMYD3) was 390 nM and the “Thermal shift assay (° C.)” value [1] was 7.24 °C.
